Assay results published in ChEMBL document CHEMBL3885881, “DrugMatrix”.

Organism: Rattus norvegicus
Experiment: DrugMatrix - Regimen: Daily Repeat
Format: toxicity, organism-based, Sprague-Dawley
Design: regimen Daily Repeat, gender Male, age 6-8 weeks
Conditions: in vivo, iv, vehicle 100 % SALINE; for ABSOLUTE BASOPHIL / ABSOLUTE EOSINOPHIL / ABSOLUTE LYMPHOCYTE / ABSOLUTE MONOCYTE / ABSOLUTE SEGMENTED NEUTROPHIL / BASOPHIL / EOSINOPHIL / ERYTHROCYTE COUNT / HEMATOCRIT / HEMOGLOBIN / LEUKOCYTE COUNT / LYMPHOCYTE / MEAN CORPUSCULAR HEMOGLOBIN / MEAN CORPUSCULAR HEMOGLOBIN CONCENTRATION / MEAN CORPUSCULAR VOLUME / MONOCYTE / NEUTROPHIL / NUCLEATED RED BLOOD CELLS / PLATELET COUNT: tissue Blood; for ALANINE AMINOTRANSFERASE / ALBUMIN / ALKALINE PHOSPHATASE / ASPARTATE AMINOTRANSFERASE / BLOOD UREA NITROGEN / CARBON DIOXIDE / CHLORIDE / CHOLESTEROL / CREATINE PHOSPHOKINASE / CREATININE / GLUCOSE / LACTATE DEHYDROGENASE / LIPASE / PHOSPHORUS / POTASSIUM / SODIUM / TOTAL BILIRUBIN / TOTAL PROTEIN / URIC ACID: tissue Plasma
[1] = 120 mg/kg, 72 h, dose level High, time 3 day
[2] = 120 mg/kg, 120 h, dose level High, time 5 day
[3] = […], 72 h, dose 8.2 mg/Kg, dose level Low, time 3 day
[4] = […], 120 h, dose 8.2 mg/Kg, dose level Low, time 5 day

Compound: [H]/N=C(/N)N[C@H]1[C@H](O)[C@@H](O)[C@H](O[C@@H]2O[C@@H](C)[C@](O)(C=O)[C@H]2O[C@@H]2O[C@@H](CO)[C@H](O)[C@@H](O)[C@@H]2NC)[C@@H](N/C(N)=N\[H])[C@@H]1O [STREPTOMYCIN]
- ABSOLUTE BASOPHIL [1]: 0 CELLS/uL
- ABSOLUTE EOSINOPHIL [1]: 272.33 CELLS/uL
- ABSOLUTE LYMPHOCYTE [1]: 11274.33 CELLS/uL
- ABSOLUTE MONOCYTE [1]: 397 CELLS/uL
- ABSOLUTE SEGMENTED NEUTROPHIL [1]: 1289.67 CELLS/uL
- BASOPHIL [1]: 0%
- EOSINOPHIL [1]: 2%
- ERYTHROCYTE COUNT [1]: 5.88 x10E6/uL
- HEMATOCRIT [1]: 36.13%
- HEMOGLOBIN [1]: 13.67 G/DL
- LEUKOCYTE COUNT [1]: 13.23 x10E3/uL
- LYMPHOCYTE [1]: 85.33%
- MEAN CORPUSCULAR HEMOGLOBIN [1]: 23.3 pg
- MEAN CORPUSCULAR HEMOGLOBIN CONCENTRATION [1]: 37.8 G/DL
- MEAN CORPUSCULAR VOLUME [1]: 61.53 fL
- MONOCYTE [1]: 3%
- NEUTROPHIL [1]: 9.67%
- NUCLEATED RED BLOOD CELLS [1]: 0.33 /100WBC
- PLATELET COUNT [1]: 1314 x10E3/uL
- ALANINE AMINOTRANSFERASE [1]: 43 u/L
- ALBUMIN [1]: 4.27 G/DL
- ALKALINE PHOSPHATASE [1]: 316.67 u/L
- ASPARTATE AMINOTRANSFERASE [1]: 75.67 u/L
- BLOOD UREA NITROGEN [1]: 18.33 mg/dL
- CARBON DIOXIDE [1]: 24.67 mmol/L
- CHLORIDE [1]: 106 MEQ/L
- CHOLESTEROL [1]: 86 mg/dL
- CREATINE PHOSPHOKINASE [1]: 233.67 u/L
- CREATININE [1]: 0.28 mg/dL
- GLUCOSE [1]: 150.33 mg/dL
- LACTATE DEHYDROGENASE [1]: 355.67 u/L
- LIPASE [1]: 9 u/L
- PHOSPHORUS [1]: 12.8 mg/dL
- POTASSIUM [1]: 6.3 MEQ/L
- SODIUM [1]: 147.3 MEQ/L
- TOTAL BILIRUBIN [1]: 0.23 mg/dL
- TOTAL PROTEIN [1]: 6.03 G/DL
- URIC ACID [1]: 1.3 mg/dL
- ABSOLUTE BASOPHIL [2]: 0 CELLS/uL
- ABSOLUTE EOSINOPHIL [2]: 0 CELLS/uL
- ABSOLUTE LYMPHOCYTE [2]: 15247.67 CELLS/uL
- ABSOLUTE MONOCYTE [2]: 224.67 CELLS/uL
- ABSOLUTE SEGMENTED NEUTROPHIL [2]: 2294.33 CELLS/uL
- BASOPHIL [2]: 0%
- EOSINOPHIL [2]: 0%
- ERYTHROCYTE COUNT [2]: 5.9 x10E6/uL
- HEMATOCRIT [2]: 36.63%
- HEMOGLOBIN [2]: 13.87 G/DL
- LEUKOCYTE COUNT [2]: 17.77 x10E3/uL
- LYMPHOCYTE [2]: 85.33%
- MEAN CORPUSCULAR HEMOGLOBIN [2]: 23.5 pg
- MEAN CORPUSCULAR HEMOGLOBIN CONCENTRATION [2]: 37.83 G/DL
- MEAN CORPUSCULAR VOLUME [2]: 62.1 fL
- MONOCYTE [2]: 1.33%
- NEUTROPHIL [2]: 13.33%
- NUCLEATED RED BLOOD CELLS [2]: 0 /100WBC
- PLATELET COUNT [2]: 1316.67 x10E3/uL
- ALANINE AMINOTRANSFERASE [2]: 42.33 u/L
- ALBUMIN [2]: 4.33 G/DL
- ALKALINE PHOSPHATASE [2]: 270 u/L
- ASPARTATE AMINOTRANSFERASE [2]: 91 u/L
- BLOOD UREA NITROGEN [2]: 18.67 mg/dL
- CARBON DIOXIDE [2]: 25 mmol/L
- CHLORIDE [2]: 104 MEQ/L
- CHOLESTEROL [2]: 61 mg/dL
- CREATINE PHOSPHOKINASE [2]: 601.67 u/L
- CREATININE [2]: 0.19 mg/dL
- GLUCOSE [2]: 177.67 mg/dL
- LACTATE DEHYDROGENASE [2]: 433 u/L
- LIPASE [2]: 8.67 u/L
- PHOSPHORUS [2]: 14 mg/dL
- POTASSIUM [2]: 6.21 MEQ/L
- SODIUM [2]: 147.03 MEQ/L
- TOTAL BILIRUBIN [2]: 0.13 mg/dL
- TOTAL PROTEIN [2]: 6.3 G/DL
- URIC ACID [2]: 1.83 mg/dL
- ABSOLUTE BASOPHIL [3]: 0 CELLS/uL
- ABSOLUTE EOSINOPHIL [3]: 0 CELLS/uL
- ABSOLUTE LYMPHOCYTE [3]: 16010 CELLS/uL
- ABSOLUTE MONOCYTE [3]: 231.33 CELLS/uL
- ABSOLUTE SEGMENTED NEUTROPHIL [3]: 1025.33 CELLS/uL
- BASOPHIL [3]: 0%
- EOSINOPHIL [3]: 0%
- ERYTHROCYTE COUNT [3]: 6.28 x10E6/uL
- HEMATOCRIT [3]: 40.03%
- HEMOGLOBIN [3]: 14.6 G/DL
- LEUKOCYTE COUNT [3]: 17.27 x10E3/uL
- LYMPHOCYTE [3]: 92.67%
- MEAN CORPUSCULAR HEMOGLOBIN [3]: 23.33 pg
- MEAN CORPUSCULAR HEMOGLOBIN CONCENTRATION [3]: 36.47 G/DL
- MEAN CORPUSCULAR VOLUME [3]: 63.9 fL
- MONOCYTE [3]: 1.33%
- NEUTROPHIL [3]: 6%
- NUCLEATED RED BLOOD CELLS [3]: 0 /100WBC
- PLATELET COUNT [3]: 1313.67 x10E3/uL
- ALANINE AMINOTRANSFERASE [3]: 51.67 u/L
- ALBUMIN [3]: 4.5 G/DL
- ALKALINE PHOSPHATASE [3]: 417.33 u/L
- ASPARTATE AMINOTRANSFERASE [3]: 82.67 u/L
- BLOOD UREA NITROGEN [3]: 13.67 mg/dL
- CARBON DIOXIDE [3]: 23 mmol/L
- CHLORIDE [3]: 105.33 MEQ/L
- CHOLESTEROL [3]: 84 mg/dL
- CREATINE PHOSPHOKINASE [3]: 198.33 u/L
- CREATININE [3]: 0.22 mg/dL
- GLUCOSE [3]: 155.33 mg/dL
- LACTATE DEHYDROGENASE [3]: 234 u/L
- LIPASE [3]: 9 u/L
- PHOSPHORUS [3]: 14.77 mg/dL
- POTASSIUM [3]: 7.14 MEQ/L
- SODIUM [3]: 148.8 MEQ/L
- TOTAL BILIRUBIN [3]: 0.2 mg/dL
- TOTAL PROTEIN [3]: 6.33 G/DL
- URIC ACID [3]: 2.1 mg/dL
- ABSOLUTE BASOPHIL [4]: 0 CELLS/uL
- ABSOLUTE EOSINOPHIL [4]: 277 CELLS/uL
- ABSOLUTE LYMPHOCYTE [4]: 11716.67 CELLS/uL
- ABSOLUTE MONOCYTE [4]: 225 CELLS/uL
- ABSOLUTE SEGMENTED NEUTROPHIL [4]: 1048 CELLS/uL
- BASOPHIL [4]: 0%
- EOSINOPHIL [4]: 2%
- ERYTHROCYTE COUNT [4]: 5.69 x10E6/uL
- HEMATOCRIT [4]: 36.1%
- HEMOGLOBIN [4]: 13.83 G/DL
- LEUKOCYTE COUNT [4]: 13.27 x10E3/uL
- LYMPHOCYTE [4]: 88.67%
- MEAN CORPUSCULAR HEMOGLOBIN [4]: 24.27 pg
- MEAN CORPUSCULAR HEMOGLOBIN CONCENTRATION [4]: 38.33 G/DL
- MEAN CORPUSCULAR VOLUME [4]: 63.43 fL
- MONOCYTE [4]: 1.67%
- NEUTROPHIL [4]: 7.67%
- NUCLEATED RED BLOOD CELLS [4]: 0 /100WBC
- PLATELET COUNT [4]: 1319.67 x10E3/uL
- ALANINE AMINOTRANSFERASE [4]: 44 u/L
- ALBUMIN [4]: 4.43 G/DL
- ALKALINE PHOSPHATASE [4]: 308.33 u/L
- ASPARTATE AMINOTRANSFERASE [4]: 87.33 u/L
- BLOOD UREA NITROGEN [4]: 20.67 mg/dL
- CARBON DIOXIDE [4]: 24.33 mmol/L
- CHLORIDE [4]: 106.67 MEQ/L
- CHOLESTEROL [4]: 58.67 mg/dL
- CREATINE PHOSPHOKINASE [4]: 307 u/L
- CREATININE [4]: 0.18 mg/dL
- GLUCOSE [4]: 143 mg/dL
- LACTATE DEHYDROGENASE [4]: 514.33 u/L
- LIPASE [4]: 9 u/L
- PHOSPHORUS [4]: 12.6 mg/dL
- POTASSIUM [4]: 6.63 MEQ/L
- SODIUM [4]: 147.1 MEQ/L
- TOTAL BILIRUBIN [4]: 0.17 mg/dL
- TOTAL PROTEIN [4]: 6.27 G/DL
- URIC ACID [4]: 1.5 mg/dL
